Reference: patent US20220340564A1, “ANTIBACTERIAL COMPOUNDS” (Janssen Sciences Ireland Unlimited Company, priority 2019, published 2022)

Tested on: Mycobacterium tuberculosis strain EH4.0 expressing green-fluorescent protein (GFP)
Assay: microbe, parasite or virus in culture
Type: cell-based
Conditions: 168 h, read-out: pIC50 (converted)

SMILES	IC50 [nM]
CCc1nc2cc3c(cn2c1C(=O)NCc1ccc(N2CCN(S(=O)(=O)C(F)(F)F)C=N2)c(F)c1)OCCO3 [Compound 100]	31.6
CCc1nc2ccc(C3CC3)cn2c1C(=O)NCc1ccc(N2CCN(S(=O)(=O)C(F)(F)F)C=N2)c(F)c1 [Compound 101]	29.5
CCc1nc2c(Cl)cc(C)cn2c1C(=O)NCc1ccc(N2CCN(S(=O)(=O)C(F)(F)F)C=N2)c(F)c1 [Compound 102]	29.5
CCc1nc2cc(Br)c(Cl)cn2c1C(=O)NCc1ccc(N2CCN(S(=O)(=O)C(F)(F)F)C=N2)c(F)c1 [Compound 103]	28.2
O=C(NCc1ccc(N2CCN(S(=O)(=O)C(F)(F)F)C=N2)cc1)c1c(C(F)F)nc2n1CCCC2 [Compound 104]	28.2
CCc1nc2c(C)cc(OC)cn2c1C(=O)NCc1ccc(N2CCN(S(=O)(=O)C(F)(F)F)C=N2)c(F)c1 [Compound 105]	27.5
CCc1nc2cc(OC)c(C)cn2c1C(=O)NCc1ccc(N2CCN(S(=O)(=O)C(F)(F)F)C=N2)c(F)c1 [Compound 106]	25.7
CCc1nc2cc(C)c(Cl)cn2c1C(=O)NCc1ccc(N2CCN(S(=O)(=O)C(F)(F)F)C=N2)cc1 [Compound 107]	24
CCc1nc2cc(C)c(Cl)cn2c1C(=O)NCc1ccc(N2CCN(S(=O)(=O)C(F)(F)F)C(OC)=N2)cc1 [Compound 108]	20.4
COC1=NN(c2ccc(CNC(=O)c3c(C(F)F)nc4n3CCCC4)cc2)CCN1S(=O)(=O)C(F)(F)F [Compound 109]	20
CCc1nc2ccc(Cl)cn2c1C(=O)NCc1ccc(N2CCNC(OC)=N2)c(F)c1 [Compound 110]	18.6
CCc1nc2nc(C)ccn2c1C(=O)NCc1ccc(N2CCN(S(=O)(=O)C(F)(F)F)C=N2)c(F)c1 [Compound 111]	18.2
COC1=NN(c2ccc(CNC(=O)c3c(C(F)(F)F)nc4n3CCCC4)cc2F)CCN1S(=O)(=O)C(F)(F)F [Compound 112]	17.4
CCc1nc2cc3c(cn2c1C(=O)NCc1ccc(N2CCN(S(=O)(=O)C(F)(F)F)C=N2)c(F)c1)CCC3 [Compound 113]	16.2
O=C(NCc1ccc(N2CCN(S(=O)(=O)C(F)(F)F)C=N2)c(F)c1)c1c(C(F)(F)F)nc2cc(F)c(Cl)cn12 [Compound 114]	16.2
CCc1nc2nc(OC)ccn2c1C(=O)NCc1ccc(N2CCN(S(=O)(=O)C(F)(F)F)C=N2)c(F)c1 [Compound 115]	15.8
CCc1nc2cc(C)c(Cl)cn2c1C(=O)NCc1ccc(N2CCN(S(=O)(=O)C(F)(F)F)C=N2)c(F)c1 [Compound 116]	15.1
COC1=NN(c2ccc(CNC(=O)c3c(C(F)(F)F)nc4ccc(Cl)cn34)cc2F)CCN1S(=O)(=O)C(F)(F)F [Compound 117]	14.8
CCc1nc2cc(Cl)c(Cl)cn2c1C(=O)NCc1ccc(N2CCN(S(=O)(=O)C(F)(F)F)C=N2)c(F)c1 [Compound 118]	13.8
CCc1nc2nc3c(cn2c1C(=O)NCc1ccc(N2CCN(S(=O)(=O)C(F)(F)F)C=N2)c(F)c1)CCCC3 [Compound 119]	13.5
CCc1nc2ccc(Cl)cn2c1C(=O)NCc1ccc(N2CCN(c3cccs3)C(OC)=N2)cc1 [Compound 120]	12.9
CCc1nc2ncc(F)cn2c1C(=O)NCc1ccc(N2CCN(S(=O)(=O)C(F)(F)F)C(OC)=N2)c(F)c1 [Compound 121]	12.9
O=C(NCc1ccc(N2CCN(S(=O)(=O)C(F)(F)F)C=N2)c(F)c1)c1c(C(F)(F)F)nc2n1CCCC2 [Compound 123]	10.2

SMILES	IC50 [nM]
O=C(NCc1ccc(N2CCN(S(=O)(=O)C(F)(F)F)C=N2)c(F)c1)c1c(C(F)(F)F)nc2ccc(Cl)cn12 [Compound 124]	10
CCc1nc2nc(Cl)ccn2c1C(=O)NCc1ccc(N2CCN(S(=O)(=O)C(F)(F)F)C=N2)c(F)c1 [Compound 125]	9.77
CCc1nc2nc(N)c(Cl)cn2c1C(=O)NCc1ccc(N2CCN(S(=O)(=O)C(F)(F)F)C=N2)c(F)c1 [Compound 126]	9.77
O=C(NCc1ccc(N2CCN(S(=O)(=O)C(F)(F)F)C=N2)cc1)c1c(C(F)(F)F)nc2ccccn12 [Compound 127]	9.55
O=C(NCc1ccc(N2CCN(S(=O)(=O)C(F)(F)F)C=N2)cc1)c1c(C(F)F)nc2ccccn12 [Compound 128]	9.12
CCc1nc2c(Cl)cccn2c1C(=O)NCc1ccc(N2CCN(S(=O)(=O)C(F)(F)F)C=N2)c(F)c1 [Compound 129]	8.91
CCc1nc2ncc(F)cn2c1C(=O)NCc1ccc(N2CCN(S(=O)(=O)C(F)(F)F)C=N2)c(F)c1 [Compound 130]	8.71
CCc1nc2cc3c(cn2c1C(=O)NCc1ccc(N2CCN(S(=O)(=O)C(F)(F)F)C=N2)c(F)c1)OCC3 [Compound 131]	8.71
CCc1nc2cc(C)c(Cl)cn2c1C(=O)NCc1ccc(N2CCN(S(=O)(=O)C(F)(F)F)C(OC)=N2)c(F)c1 [Compound 132]	8.32
Cc1nc2sc(Cl)cn2c1C(=O)NCc1ccc(N2CCN(S(=O)(=O)C(F)(F)F)C=N2)c(F)c1 [Compound 133]	7.59
CCc1nc2cc3c(cn2c1C(=O)NCc1ccc(N2CCN(S(=O)(=O)C(F)(F)F)C=N2)c(F)c1)OCO3 [Compound 134]	7.59
CCc1nc2sc(Cl)cn2c1C(=O)NCc1ccc(N2CCN(S(=O)(=O)C(F)(F)F)C=N2)c(F)c1 [Compound 135]	7.24
Cc1cn2c(C(=O)NCc3ccc(N4CCN(S(=O)(=O)C(F)(F)F)C=N4)c(F)c3)c(C(F)(F)F)nc2s1 [Compound 136]	6.31
COC1=NN(c2ccc(CNC(=O)c3c(C(F)F)nc4n3CCCC4)cc2F)CCN1S(=O)(=O)C(F)(F)F [Compound 137]	6.17
CCc1nc2cc(F)c(Cl)cn2c1C(=O)NCc1ccc(N2CCN(S(=O)(=O)C(F)(F)F)C(OC)=N2)c(F)c1 [Compound 141]	4.9
CCc1nc2ccc(Cl)cn2c1C(=O)NCc1cnc(N2CCN(S(=O)(=O)C(F)(F)F)C=N2)c(F)c1 [Compound 142]	4.68
CCc1nc2ncc(Cl)cn2c1C(=O)NCc1ccc(N2CCN(S(=O)(=O)C(F)(F)F)C=N2)c(F)c1 [Compound 146]	3.8
O=C(NCc1ccc(N2CCN(S(=O)(=O)C(F)(F)F)C=N2)c(F)c1)c1c(C(F)F)nc2n1CCCC2 [Compound 147]	3.8
COC1=NN(c2ccc(CNC(=O)c3c(C(F)F)nc4ccccn34)cc2)CCN1S(=O)(=O)C(F)(F)F [Compound 149]	3.55
COC1=NN(c2ccc(CNC(=O)c3c(C(F)(F)F)nc4ccccn34)cc2)CCN1S(=O)(=O)C(F)(F)F [Compound 150]	2.95
Cc1cn2c(C(=O)NCc3ccc(N4CCN(S(=O)(=O)C(F)(F)F)C=N4)c(F)c3)c(C)nc2s1 [Compound 153]	1.78
CCc1nc2nc(C)c(Cl)cn2c1C(=O)NCc1ccc(N2CCN(S(=O)(=O)C(F)(F)F)C=N2)c(F)c1 [Compound 155]	1.62
CCc1nc2ccc(F)cn2c1C(=O)NCc1ccc(N2CCN(S(=O)(=O)C(F)(F)F)C=N2)c(F)c1 [Compound 156]	1.38

SMILES	IC50 [nM]
CCc1nc2cc(F)c(Cl)cn2c1C(=O)NCc1ccc(N2CCN(S(=O)(=O)C(F)(F)F)C=N2)c(F)c1 [Compound 157]	1.38
CCc1nc2nc3c(cn2c1C(=O)NCc1ccc(N2CCN(S(=O)(=O)C(F)(F)F)C(OC)=N2)c(F)c1)CCC3 [Compound 158]	1.38
O=C(NCc1ccc(N2CCN(S(=O)(=O)C(F)(F)F)C=N2)c(F)c1)c1c(C(F)F)nc2ccccn12 [Compound 159]	1.2
COC1=NN(c2ccc(CNC(=O)c3c(C(F)F)nc4ccccn34)cc2F)CCN1S(=O)(=O)C(F)(F)F [Compound 160]	1.2
CCc1nc2sc(C)cn2c1C(=O)NCc1ccc(N2CCN(S(=O)(=O)C(F)(F)F)C=N2)c(F)c1 [Compound 163]	0.316
CCc1nc2ccc(C)cn2c1C(=O)NCc1ccc(N2CCN(S(=O)(=O)C(F)(F)F)C=N2)c(F)c1 [Compound 164]	0.245
CCc1nc2c(Br)cc(C)cn2c1C(=O)NCc1ccc(N2CCN(S(=O)(=O)C(F)(F)F)C=N2)c(F)c1 [Compound 166]	245
O=C(NCc1cnc(N2CCN(S(=O)(=O)C(F)(F)F)C=N2)c(F)c1)c1c(C(F)(F)F)nc2ccc(Cl)cn12 [Compound 167]	87.1
CCc1nc2ncc(Cl)cn2c1C(=O)NCc1cnc(N2CCN(S(=O)(=O)C(F)(F)F)C=N2)c(F)c1 [Compound 168]	38.9
CCc1nc2nc3c(cn2c1C(=O)NCc1ccc(N2CCN(S(=O)(=O)C(F)(F)F)C=N2)c(F)c1)CCOC3 [Compound 169]	10
CCc1nc2nc(N)c(F)cn2c1C(=O)NCc1ccc(N2CCN(S(=O)(=O)C(F)(F)F)C=N2)c(F)c1 [Compound 170]	316
CCc1nc2ccc(Cl)cn2c1C(=O)NCc1ccc(N2CCN(S(=O)(=O)C(F)(F)F)C=N2)nc1 [Compound 171]	25.1
Cc1cc(F)c2ncc(C(=O)NCc3ccc(N4CCN(S(=O)(=O)C(F)(F)F)C=N4)c(F)c3)n2c1 [Compound 173]	50.1
Cc1ccc2nc(C(F)(F)F)c(C(=O)NCc3ccc(N4CCN(S(=O)(=O)C(F)(F)F)C=N4)c(F)c3)n2c1 [Compound 175]	1.58
Cc1ccc2nc(C(F)(F)F)c(C(=O)NCc3cnc(N4CCN(S(=O)(=O)C(F)(F)F)C=N4)c(F)c3)n2c1 [Compound 176]	15.8
CCc1nc2nc(C)c(F)cn2c1C(=O)NCc1ccc(N2CCN(S(=O)(=O)C(F)(F)F)C=N2)c(F)c1 [Compound 177]	7.94
Cc1cc(F)c2ncc(C(=O)NCc3cnc(N4CCN(S(=O)(=O)C(F)(F)F)C=N4)c(F)c3)n2c1 [Compound 178]	200
CCc1nc2nc(OC)c(F)cn2c1C(=O)NCc1ccc(N2CCN(S(=O)(=O)C(F)(F)F)C=N2)c(F)c1 [Compound 179]	126
CCc1nc2nc3c(cn2c1C(=O)NCc1ccc(N2CCN(S(=O)(=O)C(F)(F)F)C(OC)=N2)c(F)c1)CCOC3 [Compound 180]	3.98
CCc1nc2c(F)cc(C)cn2c1C(=O)NCc1cnc(N2CCN(S(=O)(=O)C(F)(F)F)C=N2)c(F)c1 [Compound 181]	6.31
O=C(NCc1cnc(N2CCN(S(=O)(=O)C(F)(F)F)C=N2)c(F)c1)c1c(C(F)(F)F)nc2c(F)cccn12 [Compound 182]	31.6
CCc1nc2c(C)cc(C)cn2c1C(=O)NCc1cnc(N2CCN(S(=O)(=O)C(F)(F)F)C=N2)c(F)c1 [Compound 183]	200
